# Assay results from ChEMBL document CHEMBL1201862, “PubChem BioAssay data set” (2004).
# Calls of active or inactive are those of the source.
# Legend:
# [1] = molecular target: DNA dC->dU-editing enzyme APOBEC-3A (Homo sapiens, UniProt P31941); experiment: Dose Response confirmation of small molecule APOBEC3A DNA Deaminase Inhibitors via a fluorescence-based single-stranded DNA deaminase assay. [Related pubchem assays (depositor defined):AID493011, AID493024]; type: functional
# [2] = molecular target: DNA dC->dU-editing enzyme APOBEC-3G (Homo sapiens, UniProt Q9HC16); type: functional;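 note: Dose-response counterscreen measuring inhibition of APOBEC3G DNA deaminase activity, run while confirming APOBEC3A inhibitors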
# Vero [3] = experiment: cells; type: functional, cell-based; conditions: Chlorocebus sabaeus
# Vero [4] = experiment: cells; type: functional; conditions: Chlorocebus sabaeus
# [5] = inhibitors of intracellular T. cruzi replication, confirmation, NIH3T3 host cells, beta-gal luminescence (AID 2044); type: functional, cell-based;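 note: intracellular parasites grown in NIH/3T3 mouse fibroblasts as host cells; luminescent beta-galactosidase reporter signal from transgenic T. cruzi replicating inside host cells; inhibitors lower the luminescence signal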
# [6] = cytotoxicity toward NIH3T3 fibroblasts, dose response, counter-screen, cell-based, ATP luminescence, mouse fibroblasts (AID 2010); type: functional;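 note: cells exposed to compound for about 90 hours before reading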
# [7] = insulin promoter down-regulators in MIN6 cells, imaging, high-content screening, mouse beta cells (AID 1628); type: functional
# [8] = cytotoxicity in MIN6 insulinoma cells, dose response, cytotoxicity control, cell-based, mouse insulinoma (AID 2122); type: functional;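 note: confirmatory high-throughput counterscreen run to flag cytotoxic compounds; mouse MIN-6 beta cells carrying an insulin promoter eGFP reporter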
# [9] = molecular target: T1, Short transient receptor potential channel 4 (Mus musculus, UniProt Q9QUQ5); experiment: mouse TRPC4 channel activators, dose response, cell-based, HEK293 TRPC4/mu-opioid, Fluo-4 calcium (AID 434937); type: functional
# T1 sequence (Q9QUQ5 whole entry): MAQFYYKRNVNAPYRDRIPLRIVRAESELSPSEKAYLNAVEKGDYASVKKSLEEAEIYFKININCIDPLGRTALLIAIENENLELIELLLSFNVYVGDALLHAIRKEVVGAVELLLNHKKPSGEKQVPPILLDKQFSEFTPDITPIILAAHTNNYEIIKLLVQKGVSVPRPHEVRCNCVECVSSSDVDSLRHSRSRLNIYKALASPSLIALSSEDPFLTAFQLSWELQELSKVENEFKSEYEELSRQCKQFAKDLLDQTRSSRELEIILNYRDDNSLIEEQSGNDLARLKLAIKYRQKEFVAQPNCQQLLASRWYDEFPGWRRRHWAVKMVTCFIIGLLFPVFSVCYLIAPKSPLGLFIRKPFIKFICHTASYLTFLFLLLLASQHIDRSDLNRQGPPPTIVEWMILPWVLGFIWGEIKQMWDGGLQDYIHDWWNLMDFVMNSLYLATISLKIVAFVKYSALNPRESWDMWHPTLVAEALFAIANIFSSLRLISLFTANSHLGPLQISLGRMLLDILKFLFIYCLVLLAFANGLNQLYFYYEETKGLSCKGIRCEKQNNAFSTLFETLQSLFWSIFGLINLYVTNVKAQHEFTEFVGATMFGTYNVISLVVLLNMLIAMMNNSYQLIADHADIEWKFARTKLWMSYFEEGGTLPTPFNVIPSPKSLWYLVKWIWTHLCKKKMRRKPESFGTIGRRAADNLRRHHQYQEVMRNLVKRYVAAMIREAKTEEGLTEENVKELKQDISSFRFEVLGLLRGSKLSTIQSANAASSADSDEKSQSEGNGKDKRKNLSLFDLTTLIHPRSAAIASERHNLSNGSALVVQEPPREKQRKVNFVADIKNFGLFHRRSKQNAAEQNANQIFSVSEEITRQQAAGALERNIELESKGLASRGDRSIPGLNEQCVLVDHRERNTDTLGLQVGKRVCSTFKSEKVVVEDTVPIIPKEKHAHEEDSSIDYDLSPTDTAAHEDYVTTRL
# [10] = cytotoxicity in HEK-293T cells, dose response, cytotoxicity control for TCR NF-kB inhibitor project, luminescence, T-cell screen hits (AID 489026); type: functional, cell-based;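 note: cells exposed to compound about 14 hours before the viability readout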
# INS1 = experiment: beta cell apoptosis inhibitors, cytokine rescue, dose response, luminescence, retest (AID 449756); type: functional, cell-based; conditions: Rattus norvegicus;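 note: cell death triggered by IL-1 beta plus TNF-alpha plus IFN-gamma mixture; protective hits raise ATP signal compared with cytokine alone wells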
# [11] = Shn3 3'UTR reporter inhibitors, dose response, cell-based, Clone20 osteoblasts, firefly luciferase, cherry-picked (AID 624132); type: functional;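 note: firefly luciferase luminescence from reporter carrying the Shn3 3'UTR in osteoblasts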
# [12] = HepG2 cell cytotoxicity, dose response, cytotoxicity control for Shn3 inhibitor project, CellTiter-Glo, cherry-picked (AID 624134); type: functional, cell-based
# [13] = control 3'UTR Renilla luciferase suppression, dose response, counter-screen for Shn3 inhibitor project, cell-based, Clone20-Shn3RL, cherry-picked (AID 624133); type: functional
# [14] = growth induction of Burl-1 ts yeast mutant, dose response, counter-screen for SUMOylation pathway inhibitor project, whole organism, S. cerevisiae, luminescence (AID 463199); type: functional
# [15] = molecular target: Voltage-gated inwardly rectifying potassium channel KCNH2 (Homo sapiens, UniProt Q12809); conditions: Potency;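 note: confirmatory quantitative high-throughput screen measuring inhibition of hERG channel activity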
# [16] = molecular target: Eukaryotic translation initiation factor 4E (Mus musculus, UniProt P63073); experiment: eIF4E–eIF4G protein interaction inhibitors, dose response, biochemical, TR-FRET (AID 855); type: functional;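 note: potency for disrupting eIF4E binding to eIF4GI seen as loss of FRET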
# Cytochrome P450 2C19 = Cytochrome P450 2C19 (Homo sapiens, UniProt P33261); experiment: Cytochrome panel assay with activity outcomes. Panel member name: p450-cyp2c19 Compounds with AC50 equal or less than 10 uM are considered active; type: functional
# Cytochrome P450 2C9 [17] = molecular target: T2, Cytochrome P450 2C9 (Homo sapiens, UniProt P11712)
# [18] = molecular target: Glyceraldehyde-3-phosphate dehydrogenase (Homo sapiens, UniProt P04406)
# [19] = molecular target: T3, Alkaline phosphatase, tissue-nonspecific isozyme (Homo sapiens, UniProt P05186); experiment: human TNAP enzyme inhibitors, SAR follow-up, biochemical, luminescent, dose response (AID 1056)
# T3 sequence (P05186 whole entry): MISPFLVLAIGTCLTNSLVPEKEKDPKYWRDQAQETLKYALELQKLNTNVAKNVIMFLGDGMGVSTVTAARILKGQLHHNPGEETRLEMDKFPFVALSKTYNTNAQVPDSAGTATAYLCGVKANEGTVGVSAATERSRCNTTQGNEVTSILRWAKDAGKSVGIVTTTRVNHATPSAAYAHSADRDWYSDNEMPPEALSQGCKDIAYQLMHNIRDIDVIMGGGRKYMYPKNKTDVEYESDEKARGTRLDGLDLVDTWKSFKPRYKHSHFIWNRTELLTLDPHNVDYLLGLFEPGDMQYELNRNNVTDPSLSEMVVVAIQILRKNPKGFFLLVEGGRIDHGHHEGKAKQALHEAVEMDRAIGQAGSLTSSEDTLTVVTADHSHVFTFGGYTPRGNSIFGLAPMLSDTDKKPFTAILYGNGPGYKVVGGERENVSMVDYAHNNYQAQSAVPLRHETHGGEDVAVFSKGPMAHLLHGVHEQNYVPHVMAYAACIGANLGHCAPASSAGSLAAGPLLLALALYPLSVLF
# Cytochrome P450 2C9 [20] = molecular target: T2, Cytochrome P450 2C9; remark: listed apart in the source
# Cytochrome P450 3A4 = Cytochrome P450 3A4 (Homo sapiens, UniProt P08684);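 note: CYP3A4 tested as one member of a cytochrome P450 panel screen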
# Cytochrome P450 3A4, sequence (P08684 whole entry): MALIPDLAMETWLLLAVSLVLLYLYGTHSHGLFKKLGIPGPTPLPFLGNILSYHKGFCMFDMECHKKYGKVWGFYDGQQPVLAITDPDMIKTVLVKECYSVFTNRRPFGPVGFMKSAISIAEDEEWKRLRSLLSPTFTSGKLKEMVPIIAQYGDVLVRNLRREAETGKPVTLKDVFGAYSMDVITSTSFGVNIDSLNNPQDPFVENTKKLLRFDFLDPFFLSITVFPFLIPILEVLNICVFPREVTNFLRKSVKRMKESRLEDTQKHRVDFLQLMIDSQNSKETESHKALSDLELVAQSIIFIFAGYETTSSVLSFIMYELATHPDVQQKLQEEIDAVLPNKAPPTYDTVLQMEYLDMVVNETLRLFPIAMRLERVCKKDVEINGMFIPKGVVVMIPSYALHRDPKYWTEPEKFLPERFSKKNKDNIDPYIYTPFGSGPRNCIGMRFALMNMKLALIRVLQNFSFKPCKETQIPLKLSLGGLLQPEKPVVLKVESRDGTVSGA
# T2 sequence (P11712 whole entry): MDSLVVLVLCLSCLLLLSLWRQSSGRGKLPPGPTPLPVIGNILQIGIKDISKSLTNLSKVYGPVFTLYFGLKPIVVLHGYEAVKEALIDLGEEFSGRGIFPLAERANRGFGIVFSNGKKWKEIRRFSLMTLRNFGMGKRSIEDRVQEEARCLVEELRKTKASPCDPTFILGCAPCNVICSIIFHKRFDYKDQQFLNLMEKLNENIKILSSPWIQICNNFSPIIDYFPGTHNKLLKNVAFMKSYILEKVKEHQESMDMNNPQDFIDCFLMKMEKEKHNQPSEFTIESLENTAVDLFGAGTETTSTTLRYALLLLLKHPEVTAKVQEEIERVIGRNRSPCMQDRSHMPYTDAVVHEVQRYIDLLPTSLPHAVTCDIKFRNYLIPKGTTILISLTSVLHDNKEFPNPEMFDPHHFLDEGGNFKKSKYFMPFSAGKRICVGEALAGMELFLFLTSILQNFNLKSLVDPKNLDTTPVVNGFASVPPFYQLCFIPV
# Cytochrome P450 2C19, sequence (P33261 whole entry): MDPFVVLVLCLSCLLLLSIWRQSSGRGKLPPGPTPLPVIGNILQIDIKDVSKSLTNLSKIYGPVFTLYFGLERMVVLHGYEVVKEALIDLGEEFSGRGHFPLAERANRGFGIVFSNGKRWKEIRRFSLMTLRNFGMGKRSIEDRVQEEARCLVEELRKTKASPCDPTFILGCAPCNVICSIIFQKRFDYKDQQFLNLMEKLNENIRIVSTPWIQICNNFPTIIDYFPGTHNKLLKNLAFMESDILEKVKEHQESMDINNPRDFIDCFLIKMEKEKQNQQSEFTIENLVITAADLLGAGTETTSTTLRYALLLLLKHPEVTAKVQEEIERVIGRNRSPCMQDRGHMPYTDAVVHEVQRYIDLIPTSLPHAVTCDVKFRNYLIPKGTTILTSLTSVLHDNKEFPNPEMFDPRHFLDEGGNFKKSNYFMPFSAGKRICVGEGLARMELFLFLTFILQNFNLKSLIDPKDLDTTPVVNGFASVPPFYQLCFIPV
# Glyceraldehyde-3-phosphate dehydrogenase, sequence (P04406 whole entry): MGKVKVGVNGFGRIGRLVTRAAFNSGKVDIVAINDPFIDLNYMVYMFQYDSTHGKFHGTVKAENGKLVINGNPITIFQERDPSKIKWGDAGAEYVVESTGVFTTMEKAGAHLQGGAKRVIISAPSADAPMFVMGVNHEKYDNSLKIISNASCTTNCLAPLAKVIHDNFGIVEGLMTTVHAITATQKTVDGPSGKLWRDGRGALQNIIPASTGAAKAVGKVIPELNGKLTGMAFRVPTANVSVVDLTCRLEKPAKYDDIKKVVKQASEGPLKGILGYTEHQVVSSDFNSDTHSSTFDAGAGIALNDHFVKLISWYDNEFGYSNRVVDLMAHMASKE
# DNA dC->dU-editing enzyme APOBEC-3A, sequence (P31941 whole entry): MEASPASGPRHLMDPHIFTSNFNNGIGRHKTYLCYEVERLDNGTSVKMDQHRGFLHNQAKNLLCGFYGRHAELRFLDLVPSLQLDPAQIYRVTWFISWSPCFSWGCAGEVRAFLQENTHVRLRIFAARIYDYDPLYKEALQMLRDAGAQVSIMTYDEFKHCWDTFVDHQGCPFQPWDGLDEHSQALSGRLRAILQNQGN
# Voltage-gated inwardly rectifying potassium channel KCNH2, sequence (Q12809 whole entry): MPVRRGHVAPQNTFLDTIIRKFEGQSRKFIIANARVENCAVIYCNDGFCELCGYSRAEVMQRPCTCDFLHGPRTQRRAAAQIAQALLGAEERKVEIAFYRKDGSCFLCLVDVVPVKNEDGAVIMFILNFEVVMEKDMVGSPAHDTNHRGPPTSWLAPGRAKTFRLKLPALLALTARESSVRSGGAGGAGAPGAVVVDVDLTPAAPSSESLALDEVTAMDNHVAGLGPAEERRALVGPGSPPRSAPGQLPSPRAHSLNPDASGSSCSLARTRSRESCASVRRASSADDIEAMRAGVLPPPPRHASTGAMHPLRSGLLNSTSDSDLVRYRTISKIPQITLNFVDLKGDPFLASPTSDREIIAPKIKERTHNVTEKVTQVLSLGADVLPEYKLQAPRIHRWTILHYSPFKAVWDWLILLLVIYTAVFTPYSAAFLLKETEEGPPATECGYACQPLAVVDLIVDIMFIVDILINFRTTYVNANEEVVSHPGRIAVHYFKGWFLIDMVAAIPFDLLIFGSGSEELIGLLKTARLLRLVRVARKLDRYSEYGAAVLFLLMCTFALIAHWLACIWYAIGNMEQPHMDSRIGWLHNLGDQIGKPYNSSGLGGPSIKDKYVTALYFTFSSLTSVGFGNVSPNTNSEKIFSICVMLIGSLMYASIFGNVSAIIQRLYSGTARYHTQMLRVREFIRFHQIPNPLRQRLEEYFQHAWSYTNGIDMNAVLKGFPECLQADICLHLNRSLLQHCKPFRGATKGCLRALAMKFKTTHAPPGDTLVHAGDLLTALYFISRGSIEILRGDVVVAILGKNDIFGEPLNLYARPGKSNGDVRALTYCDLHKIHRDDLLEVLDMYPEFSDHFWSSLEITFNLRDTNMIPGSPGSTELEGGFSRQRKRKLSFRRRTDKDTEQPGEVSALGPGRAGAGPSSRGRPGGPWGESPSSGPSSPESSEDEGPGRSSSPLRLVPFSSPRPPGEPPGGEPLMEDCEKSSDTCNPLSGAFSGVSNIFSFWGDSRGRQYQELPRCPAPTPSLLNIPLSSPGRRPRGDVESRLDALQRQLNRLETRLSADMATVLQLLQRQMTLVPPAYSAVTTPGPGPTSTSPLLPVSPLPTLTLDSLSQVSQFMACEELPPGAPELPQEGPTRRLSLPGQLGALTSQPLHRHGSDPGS
# DNA dC->dU-editing enzyme APOBEC-3G, sequence (Q9HC16 whole entry): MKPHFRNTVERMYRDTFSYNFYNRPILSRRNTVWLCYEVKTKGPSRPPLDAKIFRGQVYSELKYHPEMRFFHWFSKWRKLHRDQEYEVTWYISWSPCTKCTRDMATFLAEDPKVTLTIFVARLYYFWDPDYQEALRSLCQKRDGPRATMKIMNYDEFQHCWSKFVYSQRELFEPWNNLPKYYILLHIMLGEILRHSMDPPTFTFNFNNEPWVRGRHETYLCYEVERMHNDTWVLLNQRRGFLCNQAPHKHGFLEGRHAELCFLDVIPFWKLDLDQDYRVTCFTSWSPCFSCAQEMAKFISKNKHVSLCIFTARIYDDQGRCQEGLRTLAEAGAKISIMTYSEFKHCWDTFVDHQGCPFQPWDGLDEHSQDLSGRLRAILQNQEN
# Eukaryotic translation initiation factor 4E, sequence (P63073 whole entry): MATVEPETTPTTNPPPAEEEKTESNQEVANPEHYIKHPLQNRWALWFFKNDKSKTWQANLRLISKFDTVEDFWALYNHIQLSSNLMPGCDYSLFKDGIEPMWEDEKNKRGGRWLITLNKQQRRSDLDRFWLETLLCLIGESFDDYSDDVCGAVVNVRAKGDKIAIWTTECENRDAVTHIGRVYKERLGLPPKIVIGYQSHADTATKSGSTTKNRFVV
structure (smiles),measurement,setting,value
C[n+]1ccccc1/C=C/c1ccccc1Cl,IC50,[1],2.25 µM (active)
same,IC50,[2],2.41 µM (active)
CCc1c(C)sc(NC(=O)C2CC2c2ccccc2)c1C(N)=O (stereo not drawn),IC50,Vero [3],3.57 µM (active)
same,CC50,Vero [4],> 25 µM (active)
OC(COc1ccc(CNCCc2ccc(C(F)(F)F)cc2)cc1)CN1CCCCC1 (stereo not drawn),EC50,[5],1.26 µM (active)
same,EC50,[6],5.08 µM (active)
same,IC50,Vero [3],8.76 µM (active)
same,CC50,Vero [4],16.4 µM (active)
Cc1sc2ncnc(NC3CCN(Cc4ccccc4)CC3)c2c1C,IC50,[7],0.411 µM (active)
same,IC50,[8],0.316 µM (active)
same,EC50,[5],1.78 µM (active)
same,EC50,[6],> 60 µM (not active)
same,EC50,[9],0.0467 µM (active)
same,IC50,[10],> 80 µM (inactive)
same,AC50,INS1,2.88 µM (active)
same,AC50,[11],1.02 µM (active)
same,AC50,[12],3.41 µM (active)
same,AC50,[13],2.61 µM (active)
CC1CCN(C(=O)Cn2cnc3c2c(=O)n(C)c(=O)n3C)c2ccccc2S1 (stereo not drawn),AC50,[14],87.7 µM (active)
CC(COc1ccc(/C=C/c2ccccc2)cc1)[N+](C)(C)C (stereo not drawn),AC50,[15],22.4 µM (inconclusive)
COc1ccc(CN2CCN(C(=O)CC(C)C)CC2)c(OC)c1OC,IC50,[16],> 64 µM (inactive)
same,AC50,Cytochrome P450 2C19,25.1 µM (inconclusive)
same,AC50,Cytochrome P450 2C9 [17],inconclusive
O=C1[C@H]2CC=CC[C@H]2C(=O)N1c1nnc(Cc2ccc(F)cc2)[nH]1,IC50,[18],> 100 µM (not active)
same,IC50,[19],4.2 µM (active)
CC(=O)N1CCN(c2ccc(NC(=O)c3ccc(C)cc3)cc2)CC1,AC50,Cytochrome P450 2C19,15.8 µM (inconclusive)
same,AC50,Cytochrome P450 2C9 [20],39.8 µM (inconclusive)
same,AC50,Cytochrome P450 3A4,inconclusive
